The CheMixHub viscosity set
± gives the uncertainty stated by the source.

Test: xn = mol fraction of the nth substance listed

CCOCCO + OCCOCCOCCO
101 kPa
Settings	viscosity [mPa·s]
293.15 K, x1 = 0.0493	36.7 ± 0.23
293.15 K, x1 = 0.1039	32.11 ± 0.2
293.15 K, x1 = 0.1964	25.21 ± 0.15
293.15 K, x1 = 0.3004	18.99 ± 0.12
293.15 K, x1 = 0.3949	14.53 ± 0.087
293.15 K, x1 = 0.4468	12.49 ± 0.074
293.15 K, x1 = 0.5005	10.66 ± 0.063
293.15 K, x1 = 0.5512	9.194 ± 0.055
293.15 K, x1 = 0.6003	7.883 ± 0.047
293.15 K, x1 = 0.7017	5.752 ± 0.035
293.15 K, x1 = 0.7946	4.246 ± 0.027
293.15 K, x1 = 0.9032	2.957 ± 0.018
293.15 K, x1 = 0.941	2.603 ± 0.016
298.15 K, x1 = 0.0425	31.4 ± 0.2
298.15 K, x1 = 0.1132	26.58 ± 0.17
298.15 K, x1 = 0.198	21.56 ± 0.13
298.15 K, x1 = 0.2956	16.85 ± 0.1
298.15 K, x1 = 0.3992	12.84 ± 0.077
298.15 K, x1 = 0.4535	11.09 ± 0.066
298.15 K, x1 = 0.5008	9.696 ± 0.058
298.15 K, x1 = 0.5433	8.635 ± 0.052
298.15 K, x1 = 0.5935	7.463 ± 0.045
298.15 K, x1 = 0.69	5.545 ± 0.034
298.15 K, x1 = 0.8038	3.871 ± 0.024
298.15 K, x1 = 0.8966	2.774 ± 0.017
298.15 K, x1 = 0.95	2.248 ± 0.014
303.15 K, x1 = 0.0543	26.39 ± 0.17
303.15 K, x1 = 0.0954	24.22 ± 0.15
303.15 K, x1 = 0.2034	19.01 ± 0.12
303.15 K, x1 = 0.2991	15.11 ± 0.092
303.15 K, x1 = 0.4003	11.78 ± 0.071
303.15 K, x1 = 0.4492	10.39 ± 0.063
303.15 K, x1 = 0.5007	9.084 ± 0.055
303.15 K, x1 = 0.5429	8.086 ± 0.049
303.15 K, x1 = 0.5978	6.967 ± 0.043
303.15 K, x1 = 0.6987	5.187 ± 0.033
303.15 K, x1 = 0.8008	3.732 ± 0.023
303.15 K, x1 = 0.9005	2.597 ± 0.016
303.15 K, x1 = 0.95	2.081 ± 0.013

CC(C)CCO + OCCCCO
viscosity [mPa·s], 100 kPa
Settings	x1 = 0.0812	x1 = 0.1634	x1 = 0.2525	x1 = 0.3428	x1 = 0.4555	x1 = 0.5459	x1 = 0.6484	x1 = 0.7582	x1 = 0.8761
298.15 K	67.45 ± 0.49	62.1 ± 0.39	56.19 ± 0.31	50.09 ± 0.26	42.34 ± 0.28	36.04 ± 0.23	28.79 ± 0.19	20.97 ± 0.14	12.53 ± 0.1
303.15 K	53.11 ± 0.28	49.29 ± 0.32	45.07 ± 0.29	40.5 ± 0.26	34.55 ± 0.23	29.64 ± 0.2	23.86 ± 0.16	17.53 ± 0.13	10.61 ± 0.09
308.15 K	42.18 ± 0.28	39.46 ± 0.26	36.34 ± 0.24	32.86 ± 0.21	28.33 ± 0.19	24.49 ± 0.17	19.94 ± 0.14	14.75 ± 0.11	9.039 ± 0.083
